{"source": "patent US5464848A", "about": "“1,2,4-oxadiazolyl-phenoxyalkylisoxazoles and their use as antiviral agents” (Sterling Winthrop Inc., priority 1993, dated 1995)", "key": {"HRV-15": {"tested_on": "HRV-15", "assay": "Inhibition of virus-induced CPE in HeLa cells (MIC), HRV-15", "assay_type": "cell-based", "details": "Human rhinovirus sp., HRV15, 72 h, 3 day incubation at 33° C.", "experimental": "(§1) They are useful in inhibiting virus replication in vitro and are primarily active against picornaviruses, including enteroviruses, echovirus and coxsackie virus, especially rhinoviruses. […] The test procedure used was as follows: The MIC values were determined by an automated tissue culture infectious dose 50% (TCID-50) assay. HeLa cells in monoloyers in 96-well cluster plates were infected with a dilution of virus which had been shown empirically to produce 80% to 100% cytopathic effect (CPE) in 3 days in the absence of drug. The compound to be tested was serially diluted through 10, 2-fold cycles and added to the infected cells. After a 3 day incubation at 33° C. and 2.5% carbon dioxide, the cells were fixed with a 5% solution of glutaraldehyde followed by staining with a 0.25% solution of crystal violet in water. The plates were then rinsed, dried, and the amount of stain remaining in the well (a measure of intact cells) was quantitated with an optical density reader. The MIC was determined to be the concentration of compound which protected 50% of the cells from virus-induced CPE relative to an untreated virus control. […]"}, "HRV-67": {"tested_on": "HRV-67", "assay": "Inhibition of virus-induced CPE in HeLa cells (MIC), HRV-67", "assay_type": "cell-based", "details": "Human rhinovirus sp., HRV67, 72 h, 3 day incubation at 33° C.", "experimental": "as §1"}, "[1]": {"tested_on": "15 most commonly isolated nonpolio enteroviruses", "assay": "MIC for the 15 most commonly isolated nonpolio enteroviruses", "assay_type": "cell-based", "details": "15 nonpolio enteroviruses", "experimental": "(§2) They are useful in inhibiting virus replication in vitro and are primarily active against picornaviruses, including enteroviruses, echovirus and coxsackie virus, especially rhinoviruses. […] The test procedure used was as follows: The MIC values were determined by an automated tissue culture infectious dose 50% (TCID-50) assay. HeLa cells in monoloyers in 96-well cluster plates were infected with a dilution of virus which had been shown empirically to produce 80% to 100% cytopathic effect (CPE) in 3 days in the absence of drug. The compound to be tested was serially diluted through 10, 2-fold cycles and added to the infected cells. After a 3 day incubation at 33° C. and 2.5% carbon dioxide, the cells were fixed with a 5% solution of glutaraldehyde followed by staining with a 0.25% solution of crystal violet in water. The plates were then rinsed, dried, and the amount of stain remaining in the well (a measure of intact cells) was quantitated with an optical density reader. The MIC was determined to be the concentration of compound which protected 50% of the cells from virus-induced CPE relative to an untreated virus control.\nUsing the method described above, Example 1e was tested against other viruses. […]"}, "HRV-2": {"tested_on": "HRV-2", "assay": "Inhibition of virus-induced CPE in HeLa cells, automated TCID-50 assay (MIC), HRV-2", "assay_type": "cell-based, human rhinovirus", "details": "Rhinovirus A, HRV2, 72 h, 3 day incubation at 33° C.", "experimental": "as §1"}, "coxsackievirus A9 [2]": {"tested_on": "coxsackievirus A9", "assay": "Oral efficacy against coxsackievirus A9 in suckling ICR mice, daily for five days", "assay_type": "in vivo, mice (suckling ICR pups)"}, "HRV-30": {"tested_on": "HRV-30", "assay": "Inhibition of virus-induced CPE in HeLa cells (MIC), HRV-30", "assay_type": "cell-based", "details": "Human rhinovirus sp., HRV30, 72 h, 3 day incubation at 33° C.", "experimental": "as §1"}, "HRV-86": {"tested_on": "HRV-86", "assay": "Inhibition of virus-induced CPE in HeLa cells (MIC), HRV-86", "assay_type": "cell-based", "details": "Human rhinovirus sp., HRV86, 72 h, 3 day incubation at 33° C.", "experimental": "as §1"}, "coxsackievirus A21": {"tested_on": "coxsackievirus A21", "assay": "Oral efficacy against coxsackievirus A21 in weanling ICR mice", "assay_type": "in vivo", "details": "for % Alive at Day 17: oral"}, "HRV-21": {"tested_on": "HRV-21", "assay": "Inhibition of virus-induced CPE in HeLa cells (MIC), HRV-21", "assay_type": "cell-based", "details": "Human rhinovirus sp., HRV21, 72 h, 3 day incubation at 33° C.", "experimental": "as §1"}, "[3]": {"tested_on": "human rhinovirus (HRV) serotypes, panel T", "assay": "MIC50/MIC80 over panel T of fifteen human rhinovirus serotypes (HeLa cell CPE)", "assay_type": "cell-based", "experimental": "as §2\nIn the above test procedures, representative compounds of formula I were tested against some the serotypes from either a panel of fifteen human rhinovirus (HRV) serotypes, (noted in the table as panel T) namely, HRV-2, -14, -1A, -1B, -6, -21, -22, -15, -25, -30, -50, -67, -89, -86 and -41 or against some of the serotypes from a panel of 10 human rhinovirus serotypes namely HRV-3, -4, -5, -9, -16, -18, -38, -66, -75 and -61, (noted in the table as panel B) and the MIC value, expressed in micrograms per milliliter ([…]), for each rhinovirus serotype was determined for each virus, example 1e is given as an example of the data. Then MIC50 and MIC80 values, which are the minimum concentrations of the compound required to inhibit 50% and 80%, respectively, of the tested serotypes were determined.\nThe following Table gives the test results for representative compounds of the invention. The panel of viruses used in the test appears before the MIC80 and MIC50 figure and the number of serotypes which the compound is tested against (N) is indicated after the MIC80 and MIC50 figure."}, "HRV-22": {"tested_on": "HRV-22", "assay": "Inhibition of virus-induced CPE in HeLa cells (MIC), HRV-22", "assay_type": "cell-based", "details": "Human rhinovirus sp., HRV22, 72 h, 3 day incubation at 33° C.", "experimental": "as §1"}, "HRV-1B": {"tested_on": "HRV-1B", "assay": "Inhibition of virus-induced CPE in HeLa cells (MIC), HRV-1B", "assay_type": "cell-based, human rhinovirus", "details": "Rhinovirus A, HRV1B, 72 h, 3 day incubation at 33° C.", "experimental": "as §1"}, "HRV-25": {"tested_on": "HRV-25", "assay": "Inhibition of virus-induced CPE in HeLa cells (MIC), HRV-25", "assay_type": "cell-based", "details": "Human rhinovirus sp., HRV25, 72 h, 3 day incubation at 33° C.", "experimental": "as §1"}, "HRV-41": {"tested_on": "HRV-41", "assay": "Inhibition of virus-induced CPE in HeLa cells (MIC), HRV-41", "assay_type": "cell-based", "details": "Human rhinovirus sp., HRV41, 72 h, 3 day incubation at 33° C.", "experimental": "as §1"}, "coxsackievirus A9 [4]": {"tested_on": "coxsackievirus A9", "assay": "Oral efficacy against coxsackievirus A9 in suckling mice, administered once", "assay_type": "in vivo", "details": "Enterovirus B, 60 h, once 2.5 days postinfection, read-out: 50% protective dose", "experimental": "In another study of the oral efficacy of Example 1e against a coxsackievirus A9 infection in suckling mice, in which the compound was administered once 2.5 days postinfection, the 50% protective dose was determined to be 93 mg/kg per day."}, "HRV-89": {"tested_on": "HRV-89", "assay": "Inhibition of virus-induced CPE in HeLa cells (MIC), HRV-89", "assay_type": "cell-based, human rhinovirus", "details": "Rhinovirus A, HRV89, 72 h, 3 day incubation at 33° C.", "experimental": "as §1"}, "coxsackievirus B3": {"tested_on": "coxsackievirus B3", "assay": "Oral efficacy against coxsackievirus B3 in mice", "assay_type": "in vivo, adult male BALB/c mice"}, "HRV-50": {"tested_on": "HRV-50", "assay": "Inhibition of virus-induced CPE in HeLa cells (MIC), HRV-50", "assay_type": "cell-based", "details": "Human rhinovirus sp., HRV50, 72 h, 3 day incubation at 33° C.", "experimental": "as §1"}, "HRV-14": {"tested_on": "HRV-14", "assay": "Inhibition of virus-induced CPE in HeLa cells (MIC), HRV-14", "assay_type": "cell-based, human rhinovirus", "details": "Rhinovirus B, HRV14, 72 h, 3 day incubation at 33° C.", "experimental": "as §1"}, "HRV-1A": {"tested_on": "HRV-1A", "assay": "Inhibition of virus-induced CPE in HeLa cells (MIC), HRV-1A", "assay_type": "cell-based, human rhinovirus", "details": "Rhinovirus A, HRV1A, 72 h, 3 day incubation at 33° C.", "experimental": "as §1"}}}
{"compound": "Cc1cc(CCCOc2c(C)cc(-c3noc(C(F)(F)F)n3)cc2C)on1", "note": "[Example 1e, 5-{3-[2,6--Dimethyl-4-(5-trifluoromethyl-1,2,4-oxadiazol-3-yl)phenoxy]propyl}-3-methylisoxazole]", "values": [{"measurement": "MIC", "setting": "HRV-15", "value": 0.147, "unit": "µg/mL"}, {"measurement": "MIC", "setting": "HRV-67", "value": 0.07, "unit": "µg/mL"}, {"measurement": "overall MIC80", "setting": "[1]", "value": 0.05, "unit": "µM"}, {"measurement": "MIC", "setting": "HRV-2", "value": 0.027, "unit": "µg/mL"}, {"measurement": "% Nonparalyzed at Day 13", "setting": "coxsackievirus A9 [2]; 0.2 mg/kg per day, oral", "value": 7, "unit": "%"}, {"measurement": "% Nonparalyzed at Day 13", "setting": "coxsackievirus A9 [2]; 2.0 mg/kg per day, oral", "value": 10, "unit": "%"}, {"measurement": "% Nonparalyzed at Day 13", "setting": "coxsackievirus A9 [2]; 20 mg/kg per day, oral", "value": 10, "unit": "%"}, {"measurement": "% Nonparalyzed at Day 13", "setting": "coxsackievirus A9 [2]; 200 mg/kg per day, oral", "value": 87, "unit": "%"}, {"measurement": "ED50", "setting": "coxsackievirus A9 [2]; Enterovirus B, A9, po, coxsackievirus A9, suckling mice, oral, daily for five days beginning 2.5 days postinfection, read-out: 50% protective dose (PD50)", "value": 88, "unit": "mg/kg"}, {"measurement": "protection of infected mice, oral", "setting": "coxsackievirus A9 [2]; coxsackievirus A9", "value": "orally effective in protecting mice"}, {"measurement": "MIC", "setting": "HRV-30", "value": 0.047, "unit": "µg/mL"}, {"measurement": "MIC", "setting": "HRV-86", "value": 0.029, "unit": "µg/mL"}, {"measurement": "% Alive at Day 17", "setting": "coxsackievirus A21; 9.4 mg/kg per day", "value": 13, "unit": "%"}, {"measurement": "% Alive at Day 17", "setting": "coxsackievirus A21; 18.8 mg/kg per day", "value": 40, "unit": "%"}, {"measurement": "% Alive at Day 17", "setting": "coxsackievirus A21; 37.5 mg/kg per day", "value": 75, "unit": "%"}, {"measurement": "% Alive at Day 17", "setting": "coxsackievirus A21; 75 mg/kg per day", "value": 100, "unit": "%"}, {"measurement": "ED50", "setting": "coxsackievirus A21; Enterovirus C, A21, po, read-out: 50% protective dose (PD50)", "value": 26, "unit": "mg/kg"}, {"measurement": "protection of infected mice, oral", "setting": "coxsackievirus A21; coxsackievirus A21", "value": "orally effective in protecting mice"}, {"measurement": "MIC", "setting": "HRV-21", "value": 0.015, "unit": "µg/mL"}, {"measurement": "MIC50", "setting": "[3]; Human rhinovirus sp., 72 h, minimum concentration required to inhibit 50% of the tested serotypes", "value": 0.0415, "unit": "µg/mL"}, {"measurement": "MIC80", "setting": "[3]; minimum concentration required to inhibit 80% of the tested serotypes", "value": 0.119, "unit": "µg/mL"}, {"measurement": "MIC", "setting": "HRV-22", "value": 0.011, "unit": "µg/mL"}, {"measurement": "MIC", "setting": "HRV-1B", "value": 0.054, "unit": "µg/mL"}, {"measurement": "MIC", "setting": "HRV-25", "value": 0.036, "unit": "µg/mL"}, {"measurement": "MIC", "setting": "HRV-41", "value": 0.338, "unit": "µg/mL"}, {"measurement": "ED50", "setting": "coxsackievirus A9 [4]", "value": 93, "unit": "mg/kg"}, {"measurement": "MIC", "setting": "HRV-89", "value": 0.015, "unit": "µg/mL"}, {"measurement": "% Alive at Day 17", "setting": "coxsackievirus B3; 2 mg/kg per day, oral", "value": 8, "unit": "%"}, {"measurement": "% Alive at Day 17", "setting": "coxsackievirus B3; 20 mg/kg per day, oral", "value": 67, "unit": "%"}, {"measurement": "% Alive at Day 17", "setting": "coxsackievirus B3; 200 mg/kg per day, oral", "value": 92, "unit": "%"}, {"measurement": "ED50", "setting": "coxsackievirus B3; Enterovirus B, B3, po, coxsackievirus B3, adult male mice, oral, Day 1 to Day 5, read-out: 50% protective dose (PD50)", "value": 12, "unit": "mg/kg"}, {"measurement": "protection of infected mice, oral", "setting": "coxsackievirus B3; coxsackievirus B3", "value": "orally effective in protecting mice"}, {"measurement": "efficacy in severe disseminated enterovirus infection model", "setting": "coxsackievirus B3; coxsackievirus B3 infection in mice", "value": "has shown efficacy in this stringent model"}, {"measurement": "MIC", "setting": "HRV-50", "value": 0.154, "unit": "µg/mL"}, {"measurement": "MIC", "setting": "HRV-14", "value": 0.022, "unit": "µg/mL"}, {"measurement": "MIC", "setting": "HRV-1A", "value": 0.119, "unit": "µg/mL"}]}
